Source: publication PMC10620772, “Design, synthesis, and biological evaluation of new pyrimidine-5-carbonitrile derivatives as novel anti-cancer, dual EGFR^WT/COX-2 inhibitors with docking studies” (RSC Advances, 2023)

Experiments:
Assay type in all cases: cell-based, human
HL-60(TB) = experiment: NCI60 antitumor screening; details: Homo sapiens; 10 μM single dose; HL-60(TB) (leukaemia); read-out: growth inhibition percent (GI%)
SR = experiment: NCI60 antitumor screening; details: for inhibition at 10 µM: Homo sapiens, 10 μM single dose, SR (leukaemia), read-out: growth inhibition percent (GI%); for GI%: 10 μM one-dose, Table 1
A549/ATCC = experiment: NCI60 antitumor screening; details: Homo sapiens; 10 μM single dose; A549/ATCC (non-small cell lung cancer); read-out: growth inhibition percent (GI%)
EKVX = experiment: NCI60 antitumor screening; details: Homo sapiens; 10 μM single dose; EKVX (non-small cell lung cancer); read-out: growth inhibition percent (GI%)
NCI-H226 = experiment: NCI60 antitumor screening; details: for inhibition at 10 µM: Homo sapiens, 10 μM single dose, NCI-H226 (non-small cell lung cancer), read-out: growth inhibition percent (GI%); for GI%: 10 μM one-dose, Table 1
HCT-15 = experiment: NCI60 antitumor screening; details: Homo sapiens; 10 μM single dose; HCT-15 (colon cancer); read-out: growth inhibition percent (GI%)
HT29 = experiment: NCI60 antitumor screening; details: Homo sapiens, HT-29; 10 μM single dose; HT29 (colon cancer); read-out: growth inhibition percent (GI%)
KM12 = experiment: NCI60 antitumor screening; details: Homo sapiens; 10 μM single dose; KM12 (colon cancer); read-out: growth inhibition percent (GI%)
SW-620 = experiment: NCI60 antitumor screening; details: Homo sapiens; 10 μM single dose; SW-620 (colon cancer); read-out: growth inhibition percent (GI%)
SF-295 = experiment: NCI60 antitumor screening; details: Homo sapiens; 10 μM single dose; SF-295 (CNS cancer); read-out: growth inhibition percent (GI%)
U251 = experiment: NCI60 antitumor screening; details: Homo sapiens, U-251; 10 μM single dose; U251 (CNS cancer); read-out: growth inhibition percent (GI%)
LOX IMVI = experiment: NCI60 antitumor screening; details: Homo sapiens; 10 μM single dose; LOX IMVI (melanoma); read-out: growth inhibition percent (GI%)
M14 = experiment: NCI60 antitumor screening; details: Homo sapiens; 10 μM single dose; M14 (melanoma); read-out: growth inhibition percent (GI%)
MDA-MB-435 = experiment: NCI60 antitumor screening; details: Homo sapiens; 10 μM single dose; MDA-MB-435 (melanoma); read-out: growth inhibition percent (GI%)
UACC-62 = experiment: NCI60 antitumor screening; details: Homo sapiens; 10 μM single dose; UACC-62 (melanoma); read-out: growth inhibition percent (GI%)
IGROV1 = experiment: NCI60 antitumor screening; details: Homo sapiens, IGROV-1; 10 μM single dose; IGROV1 (ovarian cancer); read-out: growth inhibition percent (GI%)
OVCAR-3 = experiment: NCI60 antitumor screening; details: Homo sapiens; 10 μM single dose; OVCAR-3 (ovarian cancer); read-out: growth inhibition percent (GI%)
OVCAR-5 = experiment: NCI60 antitumor screening; details: Homo sapiens; 10 μM single dose; OVCAR-5 (ovarian cancer); read-out: growth inhibition percent (GI%)
A498 = experiment: NCI60 antitumor screening; details: Homo sapiens; 10 μM single dose; A498 (renal cancer); read-out: growth inhibition percent (GI%)
CAKI-1 = experiment: NCI60 antitumor screening; details: Homo sapiens; 10 μM single dose; CAKI-1 (renal cancer); read-out: growth inhibition percent (GI%)
RXF 393 = experiment: NCI60 antitumor screening; details: for inhibition at 10 µM: Homo sapiens, 10 μM single dose, RXF 393 (renal cancer), read-out: growth inhibition percent (GI%); for GI%: 10 μM one-dose, Table 1
TK-10 = experiment: NCI60 antitumor screening; details: Homo sapiens; 10 μM single dose; TK-10 (renal cancer); read-out: growth inhibition percent (GI%)
MDA-MB-231/ATCC = experiment: NCI60 antitumor screening; details: Homo sapiens; 10 μM single dose; MDA-MB-231/ATCC (breast cancer); read-out: growth inhibition percent (GI%)
BT-549 = experiment: NCI60 antitumor screening; details: Homo sapiens; 10 μM single dose; BT-549 (breast cancer); read-out: growth inhibition percent (GI%)
T-47D = experiment: NCI60 antitumor screening; details: Homo sapiens, T47D; 10 μM single dose; T-47D (breast cancer); read-out: growth inhibition percent (GI%)
NCI60 cell lines panel = experiment: NCI60 antitumor screening, full panel; details: for One-dose activity over the NCI60 panel: 10 μM; for inhibition at 10 µM: Homo sapiens, 10 μM single dose, mean over NCI60 cell lines, read-out: Mean growth inhibition percent (GI%)
Procedure, shortened: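 Percent growth inhibition (GI%) was recorded for each of the NCI60 lines, spanning leukaemia, lung, colon, CNS, melanoma, ovarian, renal, prostate and breast cancers, after exposure to compounds at one concentration, 10 μM.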

| SMILES | inhibition at 10 µM (HL-60(TB)) [%] | inhibition at 10 µM (SR) [%] | inhibition at 10 µM (A549/ATCC) [%] | inhibition at 10 µM (EKVX) [%] | inhibition at 10 µM (NCI-H226) [%] | inhibition at 10 µM (HCT-15) [%] | inhibition at 10 µM (HT29) [%] | inhibition at 10 µM (KM12) [%] | inhibition at 10 µM (SW-620) [%] | inhibition at 10 µM (SF-295) [%] | inhibition at 10 µM (U251) [%] | inhibition at 10 µM (LOX IMVI) [%] | inhibition at 10 µM (M14) [%] | inhibition at 10 µM (MDA-MB-435) [%] | inhibition at 10 µM (UACC-62) [%] | inhibition at 10 µM (IGROV1) [%] | inhibition at 10 µM (OVCAR-3) [%] | inhibition at 10 µM (OVCAR-5) [%] | inhibition at 10 µM (A498) [%] | inhibition at 10 µM (CAKI-1) [%] | other results |
| --- | --- | --- | --- | --- | --- | --- | --- | --- | --- | --- | --- | --- | --- | --- | --- | --- | --- | --- | --- | --- | --- |
| Cc1ccc(CSc2nc(-c3ccc(F)cc3)c(C#N)c(N3CCN(C)CC3)n2)cc1 [4l, 4-(4-Fluorophenyl)-2-((4-methylbenzyl)thio)-6-(4-methylpiperazin-1-yl) pyrimidine-5-carbonitrile] | 12.2 | < 10 | 13.1 | 12.5 | < 10 | 10.3 | 10.6 | < 10 | < 10 | 17.6 | < 10 | 12.8 | < 10 | < 10 | 13 | < 10 | < 10 | < 10 | < 10 | 36.9 | inhibition at 10 µM (RXF 393): 42.4%; inhibition at 10 µM (TK-10): < 10%; inhibition at 10 µM (MDA-MB-231/ATCC): 28.9%; inhibition at 10 µM (BT-549): 10.8%; inhibition at 10 µM (T-47D): 18.1%; One-dose activity over the NCI60 panel (NCI60 cell lines panel): moderate activity against numerous cell lines; inhibition at 10 µM (NCI60 cell lines panel): 11.2% |
| CN1CCN(c2nc(SCc3ccccc3)nc(-c3ccc(F)cc3)c2C#N)CC1 [4i, 2-(Benzylthio)-4-(4-fluorophenyl)-6-(4-methylpiperazin-1-yl) pyrimidine-5-carbonitrile] | 36.5 | 71 | 38.3 | 20.2 | < 10 | 46.8 | 67 | 19.1 | 10 | 12.3 | < 10 | 25.4 | 18.1 | 12.8 | 19.6 | < 10 | 14.4 | < 10 | 12.5 | 37.9 | GI% (SR): 70.98%; GI% (NCI-H226): — (GI value > 70%); GI% (RXF 393): — (GI value > 70%); inhibition at 10 µM (RXF 393): 49.7%; inhibition at 10 µM (TK-10): < 10%; inhibition at 10 µM (MDA-MB-231/ATCC): 15.9%; inhibition at 10 µM (BT-549): < 10%; inhibition at 10 µM (T-47D): 42.5%; inhibition at 10 µM (NCI60 cell lines panel): 24.3% |
| CN1CCN(c2nc(SCc3ccc([N+](=O)[O-])cc3)nc(-c3ccc(F)cc3)c2C#N)CC1 [4k, 4-(4-Fluorophenyl)-6-(4-methylpiperazin-1-yl)-2-((4-nitrobenzyl)thio)pyrimidine-5-carbonitrile] | < 10 | < 10 | 18.7 | 22.4 | < 10 | 15.7 | < 10 | < 10 | < 10 | 29.3 | < 10 | 20.9 | < 10 | < 10 | 19.8 | < 10 | < 10 | 16.8 | < 10 | 34.8 | inhibition at 10 µM (RXF 393): 68.5%; inhibition at 10 µM (TK-10): < 10%; inhibition at 10 µM (MDA-MB-231/ATCC): 35.1%; inhibition at 10 µM (BT-549): 46.5%; inhibition at 10 µM (T-47D): 28.6%; One-dose activity over the NCI60 panel (NCI60 cell lines panel): moderate activity against numerous cell lines; inhibition at 10 µM (NCI60 cell lines panel): 17.5% |
| N#Cc1c(-c2ccc(F)cc2)nc(SCc2ccc([N+](=O)[O-])cc2)nc1N1CCNCC1 [4g, 4-(4-Fluorophenyl)-2-((4-nitrobenzyl)thio)-6-(piperazin-1-yl) pyrimidine-5-carbonitrile] | < 10 | < 10 | < 10 | < 10 | < 10 | < 10 | < 10 | < 10 | < 10 | < 10 | < 10 | < 10 | < 10 | < 10 | < 10 | < 10 | < 10 | < 10 | < 10 | 11 | inhibition at 10 µM (RXF 393): 15.2%; inhibition at 10 µM (TK-10): < 10%; inhibition at 10 µM (MDA-MB-231/ATCC): < 10%; inhibition at 10 µM (BT-549): < 10%; inhibition at 10 µM (T-47D): < 10%; One-dose activity over the NCI60 panel (NCI60 cell lines panel): inactive; inhibition at 10 µM (NCI60 cell lines panel): < 10% |
| CN1CCN(c2nc(SCc3ccc(F)cc3)nc(-c3ccc(F)cc3)c2C#N)CC1 [4j, 2-((4-Fluorobenzyl)thio)-4-(4-fluorophenyl)-6-(4-methylpiperazin-1-yl)pyrimidine-5-carbonitrile] | < 10 | < 10 | 27.7 | 18.4 | 37.8 | < 10 | < 10 | < 10 | < 10 | 56.8 | 26.2 | 22.9 | 10.4 | < 10 | 22.5 | 16.9 | 16.1 | 17.4 | < 10 | 57.5 | GI% (SR): — (GI value > 70%); GI% (NCI-H226): — (GI value > 70%); GI% (RXF 393): 80.61%; inhibition at 10 µM (RXF 393): 80.6%; inhibition at 10 µM (TK-10): 15%; inhibition at 10 µM (MDA-MB-231/ATCC): 45.8%; inhibition at 10 µM (BT-549): 32%; inhibition at 10 µM (T-47D): 18.3%; inhibition at 10 µM (NCI60 cell lines panel): 25.1% |
